{"source": "patent US11856951B2", "about": "“Method for managing resistance to insecticidal traits and chemicals using pheromones” (Provivi, Inc., priority 2015, dated 2024)", "origin": "cited, not measured here", "key": {"[1]": {"tested_on": "mated female H. armigera", "conditions": "mated females"}, "[2]": {"tested_on": "mated H. armigera"}, "[3]": {"tested_on": "Female E. heros"}, "[4]": {"tested_on": "H. armigera males", "conditions": "wind tunnel assays"}, "[5]": {"tested_on": "virgin female H. zea"}}}
{"compound": "CCCCCCCCCCCCCC(=O)O", "note": "[C14:0]", "values": [{"measurement": "electroantennogram response", "setting": "[1]", "result": "strong electroantennogram responses"}]}
{"compound": "CCCCCCCCCCCCCCCC(=O)O", "note": "[C16:0]", "values": [{"measurement": "electroantennogram response", "setting": "[1]", "result": "strong electroantennogram responses"}]}
{"compound": "CCCCCCCCCCCCCCCCCC(=O)O", "note": "[C18:0]", "values": [{"measurement": "electroantennogram response", "setting": "[1]", "result": "strong electroantennogram responses"}]}
{"compound": "CCCCCCC=O", "note": "[Heptanal]", "values": [{"measurement": "attractiveness of an oviposition substrate", "setting": "[2]", "result": "significantly increase the attractiveness"}]}
{"compound": "CCCC(C)CCCC(C)CCCC(C)C(=O)OC", "note": "(centres unmarked) [TMTD, methyl 2,6,10-trimethyltridecanoate]", "values": [{"measurement": "attraction to lures", "setting": "[3]", "result": "attracted"}]}
{"compound": "CCCC/C=C\\CCCCCCCCCCO", "note": "[Z11-16:OH]", "values": [{"measurement": "effect on male upwind flight", "setting": "[4]", "result": "inhibits male upwind flight"}]}
{"compound": "O=Cc1ccccc1", "note": "[benzaldehyde]", "values": [{"measurement": "attractiveness of an oviposition substrate", "setting": "[2]", "result": "significantly increase the attractiveness"}]}
{"compound": "C=C", "note": "[ethylene]", "values": [{"measurement": "correlation of concentration with calling behaviour", "setting": "[5]", "result": "positively correlated"}]}
